Test results as given in ChEMBL document CHEMBL1127844, “Molecular structures and conformational studies of triarylcyclopropyl and related nonsteroidal antiestrogens” (J Med Chem, 1994).

Test system: MCF7
Test: Percent inhibition of estrogen receptor positive MCF-7 human breast cancer cell proliferation at 10e-7 M
Format: functional

Point of comparison: `CN(C)CCOc1ccc(C2(c3ccccc3)C(c3ccccc3)C2(Cl)Cl)cc1` (configuration not stated), inhibition at 0.1 µM 41%. Against it:
- COc1ccc(C2C(Cl)(Cl)C2(c2ccc(OC)cc2)c2ccc(OCc3ccccc3)cc2)cc1 (configuration not stated) — lower, 35%
- ClC1(Cl)C(c2ccccc2)C1c1ccccc1 (configuration not stated) — higher, 60%
- COc1ccc(C2(c3ccc(OCc4ccccc4)cc3)C(c3ccccc3)C2(Cl)Cl)cc1 (configuration not stated) — higher, 46%
- CC/C(=C(\c1ccccc1)c1ccc(OCCN(C)C)cc1)c1ccccc1 [TAMOXIFEN] — higher, 52%
- COc1ccc(C2(c3ccccc3)C(c3ccccc3)C2(Cl)Cl)cc1 (configuration not stated) — lower, 35%
- COc1ccc(C2(c3ccc(OCCN(C)C)cc3)C(c3ccccc3)C2(Cl)Cl)cc1 (configuration not stated) — lower, 35%
